# Patent publication US8030358B2, “Methods and pharmaceutical compositions for decorporation of radioactive compounds” (priority 2007, dated 2011)
# Columns and labels:
# [1] = Bioavailability study (oral C2E5 vs intravenous DTPA); format: in vivo, rat
# Method: A bioavailability study was conducted in which five rats were intravenously administered 5 mg of DTPA and another 5 rats were orally administered an equivalent […] dose (approximately 7 mg) of C2E5 in a 10% ethanol solution. Blood samples were obtained at regular intervals from an in-dwelling catheter that had been surgically implanted prior to the administration of the doses.
# [2] = Small Animal Decorporation Efficacy Study; format: in vivo; conditions: rats; oral C2E5 compared with IV administration of equivalent doses of DTPA
structure (smiles),measurement,setting,value
"CCOC(=O)CN(CCN(CC(=O)OCC)CC(=O)OCC)CCN(CC(=O)OCC)CC(=O)OCC [C2E5, DTPA Pentaethyl Ester]",bioavailability,"[1]; rat model, oral, approximately 7 mg C2E5 in a 10% ethanol solution, compared with 5 mg DTPA intravenously",~100%
same,C2E5 detected in the plasma,"[1]; rat, after oral C2E5 in a 10% ethanol solution",no C2E5 can be detected in the plasma
same,conversion to DTPA after absorption from the gastrointestinal tract,"[1]; rat, oral C2E5",quantitatively and rapidly converted to DTPA
same,blood concentration profile compared to IV DTPA,"[1]; rat, oral C2E5 vs 5 mg DTPA intravenously",lower blood levels and a longer duration compared to IV DTPA
same,decorporation of ^241Am,[2],compared favorably
